# Legend:
# Assay in all cases: relative viability (nuclei count vs DMSO), 5 days (fraction); higher = more cells survive
# MK-2206 + Crizotinib = compound: NC1(c2ccc(-c3nc4ccn5c(=O)[nH]nc5c4cc3-c3ccccc3)cc2)CCC1 [MK-2206] + C[C@@H](Oc1cc(-c2cnn(C3CCNCC3)c2)cnc1N)c1c(Cl)ccc(F)c1Cl [Crizotinib] (partner 1 µM)
# Summary of the method: (§1)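 Relative viability was taken as the ratio of nuclei in treated wells to nuclei in vehicle wells. Lung cancer cell lines in 1536-well plates received compounds by pin tool one day after seeding, either one drug alone or a fixed anchor-drug dose plus five library-drug doses (not always all listed) in √10 steps. Nuclei were counted on 4× images after 5 days of treatment, and values are medians of duplicate plates.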
# Pictilisib + Linsitinib = compound: CS(=O)(=O)N1CCN(Cc2cc3nc(-c4cccc5[nH]ncc45)nc(N4CCOCC4)c3s2)CC1 [Pictilisib] + C[C@]1(O)C[C@@H](c2nc(-c3ccc4ccc(-c5ccccc5)nc4c3)c3c(N)nccn32)C1 [Linsitinib] (partner 1 µM)
# Summary of the method: as §1
# Pictilisib + Phenformin = compound: CS(=O)(=O)N1CCN(Cc2cc3nc(-c4cccc5[nH]ncc45)nc(N4CCOCC4)c3s2)CC1 [Pictilisib] + N=C(N)NC(=N)NCCc1ccccc1 [Phenformin] (partner 250 µM)
# Summary of the method: as §1
# MK-2206 + Alpelisib = compound: NC1(c2ccc(-c3nc4ccn5c(=O)[nH]nc5c4cc3-c3ccccc3)cc2)CCC1 [MK-2206] + Cc1nc(NC(=O)N2CCC[C@H]2C(N)=O)sc1-c1ccnc(C(C)(C)C(F)(F)F)c1 [Alpelisib] (partner 2 µM)
# Summary of the method: as §1
# MK-2206 + Bortezomib = compound: NC1(c2ccc(-c3nc4ccn5c(=O)[nH]nc5c4cc3-c3ccccc3)cc2)CCC1 [MK-2206] + CC(C)C[C@H](NC(=O)[C@H](Cc1ccccc1)NC(=O)c1cnccn1)B(O)O [Bortezomib] (partner 0.002 µM)
# Summary of the method: as §1
Cell Line,relative viability (MK-2206 + Crizotinib; first compound 0.01 µM),relative viability (MK-2206 + Crizotinib; first compound 0.03162 µM),relative viability (MK-2206 + Crizotinib; first compound 0.3162 µM),relative viability (MK-2206 + Crizotinib; first compound 1 µM),relative viability (Pictilisib + Linsitinib; first compound 0.02 µM),relative viability (Pictilisib + Linsitinib; first compound 0.06325 µM),relative viability (Pictilisib + Linsitinib; first compound 0.6325 µM),relative viability (Pictilisib + Linsitinib; first compound 2 µM),relative viability (Pictilisib + Phenformin; first compound 0.02 µM),relative viability (Pictilisib + Phenformin; first compound 0.06325 µM),relative viability (Pictilisib + Phenformin; first compound 0.6325 µM),relative viability (Pictilisib + Phenformin; first compound 2 µM),relative viability (MK-2206 + Alpelisib; first compound 0.01 µM),relative viability (MK-2206 + Alpelisib; first compound 0.03162 µM),relative viability (MK-2206 + Alpelisib; first compound 0.3162 µM),relative viability (MK-2206 + Alpelisib; first compound 1 µM),relative viability (MK-2206 + Bortezomib; first compound 0.01 µM),relative viability (MK-2206 + Bortezomib; first compound 0.03162 µM),relative viability (MK-2206 + Bortezomib; first compound 0.3162 µM),relative viability (MK-2206 + Bortezomib; first compound 1 µM)
NCI-H2085,0.887,0.888,0.876,0.724,0.86,0.835,0.786,0.334,0.725,0.688,0.387,0.291,0.928,0.914,0.807,0.702,1.06,1.12,0.929,0.716
ABC-1,1.3,1.26,1.14,1.02,0.863,0.783,0.651,0.635,0.254,0.214,0.195,0.209,0.964,0.915,0.848,0.812,0.302,0.219,0.43,0.352
RERF-LC-KJ,0.808,0.806,0.871,0.842,0.823,0.881,0.818,0.618,0.409,0.35,0.343,0.307,0.922,0.802,0.663,0.697,1.06,1.12,0.876,1.02
LU99A,0.609,0.647,0.524,0.535,0.576,0.468,0.326,0.244,0.911,0.869,0.791,0.532,0.569,0.559,0.396,0.472,1.27,1.12,1.14,1.06
NCI-H650,0.725,0.72,0.563,0.805,0.979,1.03,0.809,0.633,0.468,0.457,0.357,0.394,1.09,1.15,1.11,0.983,0.898,0.932,0.642,0.656
NCI-H2347,0.733,0.761,0.708,0.67,1.02,1.08,1.1,0.933,0.451,0.461,0.325,0.207,0.967,1.11,1.11,0.973,0.914,1.11,1.06,0.92
HARA,1.11,1.08,0.986,0.979,0.979,1.06,0.803,0.353,0.454,0.469,0.37,0.244,0.789,0.745,0.611,0.582,1.16,1.31,1.08,0.916
NCI-H2228,0.445,0.348,0.343,0.339,0.533,0.637,0.31,0.184,0.335,0.38,0.18,0.141,0.625,0.621,0.288,0.262,0.973,1.04,0.643,0.413
EKVX,0.897,1.1,0.858,0.868,1.02,0.948,0.749,0.429,0.228,0.256,0.211,0.178,0.761,0.904,0.843,0.82,0.996,1.21,0.705,0.649
HCC-827,0.966,0.874,0.977,0.98,0.938,1.01,1.03,0.711,0.423,0.419,0.376,0.306,1.07,1.05,0.821,0.816,0.98,1.06,1.09,1.03
NCI-H1755,0.875,0.836,0.798,0.727,1.02,0.975,0.906,0.53,0.654,0.594,0.401,0.357,0.919,0.93,0.881,0.863,0.96,0.99,0.838,0.689
NCI-H661,0.952,0.911,0.809,0.961,0.527,0.428,0.455,0.233,0.302,0.282,0.269,0.216,0.745,1.07,0.688,0.473,0.857,0.864,0.862,0.989
NCI-H23,0.563,0.619,0.53,0.543,0.632,0.641,0.605,0.423,0.84,0.82,0.664,0.523,0.705,0.805,0.784,0.779,0.906,1.04,0.91,0.975
HCC-366,0.48,0.532,0.452,0.442,0.776,0.448,0.256,0.0873,0.631,0.702,0.269,0.129,0.526,0.48,0.244,0.212,1.01,0.982,1.04,1.02
LCLC-97TM1,0.34,0.329,0.303,0.284,0.17,0.161,0.189,0.17,0.435,0.415,0.398,0.194,0.316,0.261,0.185,0.204,0.415,0.593,0.39,0.44
EMC-BAC-2,0.714,0.729,0.781,0.745,0.809,0.787,0.716,0.538,0.604,0.515,0.432,0.335,0.768,0.764,0.729,0.693,1.08,1.04,1.06,0.865

Cell Line,relative viability (MK-2206 + Crizotinib; first compound 0.01 µM),relative viability (MK-2206 + Crizotinib; first compound 0.03162 µM),relative viability (MK-2206 + Crizotinib; first compound 0.3162 µM),relative viability (MK-2206 + Crizotinib; first compound 1 µM),relative viability (Pictilisib + Linsitinib; first compound 0.02 µM),relative viability (Pictilisib + Linsitinib; first compound 0.06325 µM),relative viability (Pictilisib + Linsitinib; first compound 0.6325 µM),relative viability (Pictilisib + Linsitinib; first compound 2 µM),relative viability (Pictilisib + Phenformin; first compound 0.02 µM),relative viability (Pictilisib + Phenformin; first compound 0.06325 µM),relative viability (Pictilisib + Phenformin; first compound 0.6325 µM),relative viability (Pictilisib + Phenformin; first compound 2 µM),relative viability (MK-2206 + Alpelisib; first compound 0.01 µM),relative viability (MK-2206 + Alpelisib; first compound 0.03162 µM),relative viability (MK-2206 + Alpelisib; first compound 0.3162 µM),relative viability (MK-2206 + Alpelisib; first compound 1 µM),relative viability (MK-2206 + Bortezomib; first compound 0.01 µM),relative viability (MK-2206 + Bortezomib; first compound 0.03162 µM),relative viability (MK-2206 + Bortezomib; first compound 0.3162 µM),relative viability (MK-2206 + Bortezomib; first compound 1 µM)
NCI-H441,0.798,0.639,0.612,0.643,0.58,0.581,0.414,0.325,0.822,0.789,0.601,0.337,0.697,0.742,0.453,0.661,0.841,0.575,0.223,0.233
LCLC-103H,0.989,0.963,0.99,1.04,1.14,1.14,0.814,0.716,0.378,0.312,0.294,0.214,1.02,0.977,0.933,0.826,1.04,1.03,1.02,1.07
HOP-62,1.04,0.945,0.903,1.03,1.03,0.868,0.759,0.779,0.681,0.701,0.717,0.598,1.14,0.925,1.03,0.914,0.726,0.759,0.429,0.743
NCI-H1355,1.07,1.03,1.08,0.914,0.759,0.678,0.744,0.402,0.493,0.467,0.393,0.248,0.886,0.813,0.789,0.783,1.22,1.25,1.07,1.14
COR-L23,0.69,0.691,0.796,0.693,0.914,0.886,0.878,0.387,0.428,0.471,0.522,0.424,0.82,0.904,0.681,0.686,0.913,1,1.18,0.989
HCC-44,0.826,0.787,0.756,0.818,0.607,0.627,0.609,0.303,0.215,0.151,0.154,0.0888,0.784,0.767,0.633,0.59,0.921,0.86,0.877,0.874
A-427,0.896,0.824,0.742,0.893,1.11,1.13,1.1,1.08,0.345,0.357,0.27,0.212,1.12,1.12,1.06,1.08,0.912,1,1.02,0.931
NCI-H520,0.833,0.741,0.42,0.421,0.975,1.09,0.56,0.208,0.613,0.516,0.19,0.2,0.939,0.819,0.561,0.355,0.485,0.675,0.431,0.242
LXF-289,0.786,0.819,0.841,0.888,0.989,0.95,0.973,0.771,0.508,0.557,0.452,0.436,1.06,1.09,1.02,1,0.949,1.04,1.06,1.06
NCI-H2087,0.777,0.889,0.749,0.835,1.12,1.02,0.918,0.944,0.483,0.439,0.468,0.28,1.17,1.03,1.12,1.1,0.763,0.875,0.807,0.69
CAL-12T,0.546,0.688,0.488,0.491,0.986,0.732,0.807,0.424,0.612,0.578,0.467,0.239,1.04,1.03,1.05,0.895,0.971,0.928,0.947,0.963
NCI-H596,0.978,1,0.898,0.736,1.02,0.853,0.643,0.337,0.697,0.697,0.375,0.305,0.518,0.623,0.401,0.473,1.07,1.09,0.964,0.648
PC-14,0.826,0.928,0.914,0.879,0.934,0.937,0.91,0.588,0.858,0.719,0.621,0.386,0.852,0.98,0.74,0.881,0.732,0.858,0.811,0.851
NCI-H1915,0.911,0.923,0.874,0.905,1.07,1.06,1.12,1.07,0.392,0.367,0.365,0.361,1.05,1.1,1.04,1.08,0.969,1.02,0.983,0.862
NCI-H647,1.03,1.06,1.04,0.897,1.16,1.15,1.02,0.439,0.667,0.698,0.291,0.227,1.39,1.24,1.07,0.851,1.06,1.27,0.959,0.644

# — the supplement of paper PMC10307832
